One assay deals with HDAC. Kind of assay: In vitro fluorescent histone deacetylase assay (Biomol HDAC fluorescent activity kit, HeLa cell nuclear extract). It counts as biochemical. The settings on record: 100 μM compound; HeLa cell nuclear extract as source of HDAC activity; 50 μM substrate, 10 min at room temperature. In outline: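 HeLa nuclear extract as HDAC source with fluorogenic substrate at 50 μM final, reacting 10 min at room temperature before stop. Compounds serially diluted in assay buffer, final DMSO ≤2%; fluorescence read at ex 355 nm / em 460 nm.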

In another assay the test system is HCT116 cells. Nature of the assay: Whole cell cytotoxicity assay: Sulforhodamine B. The format is cell-based. The settings on record: Homo sapiens, HCT-116; 100 μM compound; 48 hours incubation with drug; Sulforhodamine B staining; read-out: % Inhibition of HCT116 cell growth @ 100 μM.

We go through three molecules from patent US7772245B2, “Inhibitors of histone deacetylase” (Miikana Therapeutics, Inc., priority 2005, dated 2010).

Take `O=C(NO)c1cnc(N2Cc3cccc4cccc(c34)C2)nc1` [Example 32, 2-(1H-benzo[de]isoquinolin-2(3H)-yl)-N-hydroxypyrimidine-5-carboxamide]: the “% Inhibition of HDAC @ 100 μM” value in the assay on HDAC was determined as 96.6%. In addition, the inhibition (commonly the percentage by which the read-out fell short of the control) at 100 µM in the assay on HCT116 cells worked out at 94.6%.

For the molecule `Cc1ccc(-c2ccc3[nH]c4c(c3c2)CN(c2ncc(C(=O)NO)cn2)CC4)cc1` [Example 41, N-hydroxy-2-{8-[4-methylphenyl]-1,3,4,5-tetrahydro-2H-pyrido[4,3-b]indol-2-yl}pyrimidine-5-carboxamide], in the assay on HDAC, the “% Inhibition of HDAC @ 100 μM” value turned out to be 99.6%. Also, in the assay with HCT116 cells, the inhibition at 100 µM was found to be 98.7%.

Consider `Cc1cc2[nH]c3c(c2cc1C)CN(c1ncc(C(=O)NO)cn1)CC3` [Example 56, N-hydroxy-2-(7,8-dimethyl-1,3,4,5-tetrahydro-2H-pyrido[4,3-b]indol-2-yl)pyrimidine-5-carboxamide], for which the “% Inhibition of HDAC @ 100 μM” value in the assay with HDAC was 99.8%. Moreover, the inhibition at 100 µM in the assay with HCT116 cells was 99%.
